Data from US20260159536A1, “AKR1C3-ACTIVATED DNA ALKYLATING AGENT, AND MEDICAL APPLICATION THEREOF” (ASCENTAWITS PHARMACEUTICALS, LTD., priority 2021, published 2026).

Legend:
[1] = MTD assay of AST-3424, single 30 min intravenous drip; type: in vivo, machins; conditions: for maximal tolerance dose: single dose; for day of test substance-related death: male
Protocol: The maximal tolerance dose in machins after a single administration of AST-3424 injection by intravenous drip for 30 minutes was evaluated.

[2] = Plasma stability test, mouse; type: in vitro ADME; conditions: 5 μM, 37° C.
Protocol: The pH of the plasma was checked and recorded. Note: a.
The final concentration of solvent was 0.5%.
The assay was performed in duplicate. […] The tubes were mixed by vortex for 5 minutes.

SNU354 = assay: Cytotoxicity on hepatocellular carcinoma cell line SNU354; type: cell-based
Protocol: If not otherwise specified, IC50 values were measured by the following experimental methods:
a) Cells were plated for 24 hours, and then the compounds acted singly. 99 μL of growth medium was supplemented per well, and then 1 μL of 200× compound was added, gently shaken to ensure uniform mixing, and then placed in a 37° C., 5% CO2 incubator.
b) The cell plate was placed in the incubator for 72 hours.
b) 100 μL of CTG reagent (CelltiterGlo kit) was added to each well, the plate was placed in a rapid oscillator and shaken for 2 minutes, and then placed at room temperature for 30 minutes away from light.
The IC50 was calculated using GraphPad Prism 8 software and the IC50 (half inhibitory concentration) of the compounds was obtained using the following non-linear fitting formula: […]
Using the same experimental methods as described above, Compounds A, B and C were further tested for cytotoxicity against different hepatocellular carcinoma (HCC) cell lines SNU354, SNU886, MHCC97H and huH-1, and the results were shown in Table 2 below: […]

[3] = test system: HuPrime model LI1005 human liver cancer; assay: In vivo pharmacodynamics, liver cancer LI1005 PDX model; design: species or system BALB/c nude mice; conditions: for Tumor volume (x ± S): in mm³ (unit assumed)
[4] = 1.25 mg/kg, QDx5, 2 days off, 2 weeks off, QDx5, i.p., Day 35
[5] = 2.5 mg/kg, QDx5, 2 days off, 2 weeks off, QDx5, i.p., Day 35
[6] = 5 mg/kg, QDx5, 2 days off, 2 weeks off, QDx5, i.p., Day 35
[7] = 10 mg/kg, QWx2, 1 week off, QWx2, i.v., Day 35

## C[C@@H](OP(=O)(N1CC1)N1CC1)c1ccc([N+](=O)[O-])c(Oc2cccc(C(=O)N(C)C)c2)c1 [AST-3424]
[1]; female machins
  maximal tolerance dose: 1.5 mg/kg
[1]; female monkeys, 1.5 mg/kg
  clinical observation: weight loss, decreased food consumption, diarrhoea and vomiting
[1]; male machins
  maximal tolerance dose: 0.5 mg/kg
[1]; 1.0 mg/kg
  day of test substance-related death: 16 days
[1]; 1.5 mg/kg
  day of test substance-related death: 8 days
[1]; single intravenous drip 30 minutes
  doses at which death of male monkeys was observed: ≥ 1.0 mg/kg

## O=[N+]([O-])c1ccc(C(OP(=O)(N2CC2)N2CC2)C(F)(F)F)cc1Oc1ccc(-c2ccc(F)cc2)c(F)c1 (racemic) [Compound A]
[2]
  Percentage remaining after 2 hours in plasma: 38.19%
SNU354; Homo sapiens, SNU-354
  IC50: 962 nM
SNU354; IC50 ratio
  ratio A/B: 1.28
  ratio A/C: 0.63
[3]; 1.25 mg/kg i.p., Day 0
  Tumor volume: 102.66 mm^3
[3]; 1.25 mg/kg i.p., Day 3
  Tumor volume: 157.94 mm^3
[3]; 1.25 mg/kg i.p., Day 7
  Tumor volume: 198.68 mm^3
[3]; 1.25 mg/kg i.p., Day 10
  Tumor volume: 188.83 mm^3
[3]; 1.25 mg/kg i.p., Day 14
  Tumor volume: 196.25 mm^3
[3]; 1.25 mg/kg i.p., Day 17
  Tumor volume: 204.85 mm^3
[3]; 1.25 mg/kg i.p., Day 21
  Tumor volume: 228.87 mm^3
[3]; 1.25 mg/kg i.p., Day 24
  Tumor volume: 256.49 mm^3
[3]; 1.25 mg/kg i.p., Day 28
  Tumor volume: 246.26 mm^3
[3]; 1.25 mg/kg i.p., Day 31
  Tumor volume: 282.93 mm^3
[3]; 1.25 mg/kg i.p., Day 35
  Tumor volume: 334.61 mm^3
[3]; [4]
  Relative tumor volume (x ± S): 3.28 ± 0.53
  T/C (%): 32.47%
  TGI (%): 67.53%
  Tumor volume (x ± S): 334.61 ± 61.24
[3]; 2.5 mg/kg i.p., Day 0
  Tumor volume: 103.02 mm^3
[3]; 2.5 mg/kg i.p., Day 3
  Tumor volume: 156.63 mm^3
[3]; 2.5 mg/kg i.p., Day 7
  Tumor volume: 197.27 mm^3
[3]; 2.5 mg/kg i.p., Day 10
  Tumor volume: 156.39 mm^3
[3]; 2.5 mg/kg i.p., Day 14
  Tumor volume: 147.34 mm^3
[3]; 2.5 mg/kg i.p., Day 17
  Tumor volume: 148.94 mm^3
[3]; 2.5 mg/kg i.p., Day 21
  Tumor volume: 173.92 mm^3
[3]; 2.5 mg/kg i.p., Day 24
  Tumor volume: 180.83 mm^3
[3]; 2.5 mg/kg i.p., Day 28
  Tumor volume: 178.96 mm^3
[3]; 2.5 mg/kg i.p., Day 31
  Tumor volume: 182.98 mm^3
[3]; 2.5 mg/kg i.p., Day 35
  Tumor volume: 178.69 mm^3
[3]; [5]
  Relative tumor volume (x ± S): 1.60 ± 0.42
  T/C (%): 15.88%
  TGI (%): 84.12%
  Tumor volume (x ± S): 178.69 ± 65.98
[3]; 5 mg/kg i.p., Day 0
  Tumor volume: 103.15 mm^3
[3]; 5 mg/kg i.p., Day 3
  Tumor volume: 160.80 mm^3
[3]; 5 mg/kg i.p., Day 7
  Tumor volume: 167.82 mm^3
[3]; 5 mg/kg i.p., Day 10
  Tumor volume: 120.93 mm^3
[3]; 5 mg/kg i.p., Day 14
  Tumor volume: 97.35 mm^3
[3]; 5 mg/kg i.p., Day 17
  Tumor volume: 90.25 mm^3
[3]; 5 mg/kg i.p., Day 21
  Tumor volume: 106.81 mm^3
[3]; 5 mg/kg i.p., Day 24
  Tumor volume: 115.29 mm^3
[3]; 5 mg/kg i.p., Day 28
  Tumor volume: 110.01 mm^3
[3]; 5 mg/kg i.p., Day 31
  Tumor volume: 102.22 mm^3
[3]; 5 mg/kg i.p., Day 35
  Tumor volume: 85.00 mm^3
[3]; [6]
  Relative tumor volume (x ± S): 0.77 ± 0.18
  T/C (%): 7.62%
  TGI (%): 92.38%
  Tumor volume (x ± S): 85.00 ± 26.32
[3]; 10 mg/kg i.v., Day 0
  Tumor volume: 102.58 mm^3
[3]; 10 mg/kg i.v., Day 3
  Tumor volume: 127.72 mm^3
[3]; 10 mg/kg i.v., Day 7
  Tumor volume: 172.58 mm^3
[3]; 10 mg/kg i.v., Day 10
  Tumor volume: 138.61 mm^3
[3]; 10 mg/kg i.v., Day 14
  Tumor volume: 127.60 mm^3
[3]; 10 mg/kg i.v., Day 17
  Tumor volume: 132.95 mm^3
[3]; 10 mg/kg i.v., Day 21
  Tumor volume: 151.00 mm^3
[3]; 10 mg/kg i.v., Day 24
  Tumor volume: 181.36 mm^3
[3]; 10 mg/kg i.v., Day 28
  Tumor volume: 191.25 mm^3
[3]; 10 mg/kg i.v., Day 31
  Tumor volume: 186.25 mm^3
[3]; 10 mg/kg i.v., Day 35
  Tumor volume: 179.97 mm^3
[3]; [7]
  Relative tumor volume (x ± S): 1.87 ± 0.54
  T/C (%): 18.53%
  TGI (%): 81.47%
  Tumor volume (x ± S): 179.97 ± 51.38
[3]; Compound A 10, 1.25, 2.5, 5 mg/kg, Sorafenib 30 mg/kg
  tolerability / body weight: well tolerated
